The experiment deals with T1, Full-length glucokinase (beta cell isoform) (Homo sapiens, UniProt P35557).
T1 construct: Full-length glucokinase (beta cell isoform) was His-tagged at N-terminus; His tag (N); made in house
T1 sequence (P35557 1-465): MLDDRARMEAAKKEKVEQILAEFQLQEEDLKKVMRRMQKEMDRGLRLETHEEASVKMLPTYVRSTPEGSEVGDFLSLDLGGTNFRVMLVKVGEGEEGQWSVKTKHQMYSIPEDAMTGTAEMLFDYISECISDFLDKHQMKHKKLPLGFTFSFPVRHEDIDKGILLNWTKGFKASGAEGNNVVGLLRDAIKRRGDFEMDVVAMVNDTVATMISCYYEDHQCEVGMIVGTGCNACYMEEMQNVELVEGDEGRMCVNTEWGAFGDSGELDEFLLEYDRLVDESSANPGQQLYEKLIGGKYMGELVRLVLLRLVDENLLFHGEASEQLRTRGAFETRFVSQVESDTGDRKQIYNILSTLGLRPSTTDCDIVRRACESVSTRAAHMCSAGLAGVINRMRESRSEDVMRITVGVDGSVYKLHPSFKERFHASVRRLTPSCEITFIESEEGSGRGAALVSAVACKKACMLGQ
Kind of experiment: Glucokinase biochemical assay (PK/LDH-coupled, NADH depletion at 340 nm): % activation, EC50, % max activation. The conditions noted are these: 5 mM glucose; for activation at 10 µM: read-out: % Activation at 10 uM; for EC50: read-out: EC50; for Emax: fitted maximum activation, read-out: % Max Activation. In a few lines: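 N-terminally His-tagged full-length human beta-cell glucokinase, room temperature, 5 mM glucose, 1 mM ATP, PK/LDH-coupled with 0.7 mM NADH, 1% DMSO final. Initial velocity from the 200–900 s slope of A340 decline. % activation = (Va/Vo−1)×100, measured across compound concentrations.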

The mark [1] stands for this setting: 10 uM compound, % Activation=(Va/Vo−1)×100.
Where [2] appears, read: compound at 10 uM, 1 mM ATP, room temperature.

Like-named read-outs stand apart in the source and are kept apart here. Some results are limits rather than exact numbers.

This note sets out measurements from patent US8119624B2, “Fused phenyl amido heterocyclic compounds” (Pfizer Inc., priority 2006, dated 2012).

As to `Cc1ccc(NC(=O)c2cc(Oc3ccc(C(=O)N(C)C)cc3)c3oc(C)nc3c2)nc1` [Example 370, 7-{4-[(Dimethylamino)carbonyl]phenoxy}-2-methyl-N-(5-methylpyridin-2-yl)-1,3-benzoxazole-5-carboxamide], the Emax was found to be 3.5%. Moreover, the activation at 10 µM under setting [1] turned out to be 14.9%. In addition, the EC50 (GK activation) worked out at 0.17 µM.

For `Cc1ccc(NC(=O)c2cc(Oc3ccc(S(C)(=O)=O)cc3)c3ncsc3c2)nc1` [Example 371, N-(5-Methylpyridin-2-yl)-4-[4-(methylsulfonyl)phenoxy]-1,3-benzothiazole-6-carboxamide], the activation at 10 µM under setting [1] is 35.5%.

Consider `CS(=O)(=O)c1ccc(Oc2cc(C(=O)Nc3ccccn3)cc3scnc23)cc1` [Example 372, 4-[4-(Methylsulfonyl)phenoxy]-N-pyridin-2-yl-1,3-benzothiazole-6-carboxamide], for which the activation at 10 µM under setting [1] is 29.3%.

As to `COc1cc(C(=O)Nc2ccc(C)cn2)c2nc(C)[nH]c2c1` [Example 373, 6-Methoxy-2-methyl-1H-benzoimidazole-4-carboxylic acid(5-methyl-pyridin-2-yl)-amide], under setting [1], the activation at 10 µM is -1.1%.

Consider `Cc1ccc(NC(=O)c2cc(OCc3ccccc3Cl)c3c(c2)OC(C)(C)CC3)nc1` [Example 374, 5-(2-Chloro-benzyloxy)-2,2-dimethyl-chroman-7-carboxylic acid(5-methyl-pyridin-2-yl)-amide], for which the “% Activation at 10 uM” value under setting [1] turned out to be 17.7%.

On to `Cc1ccc(NC(=O)c2cc(OCc3ccccc3Cl)cc3c2CCC(C)(C)O3)nc1` [Example 375, 7-(2-Chloro-benzyloxy)-2,2-dimethyl-chroman-5-carboxylic acid(5-methyl-pyridin-2-yl)-amide], for which the “% Activation at 10 uM” value under setting [1] was 5.6%.

As for `Cc1ccc(NC(=O)c2cc(Oc3ccc(S(C)(=O)=O)cc3)c3c(c2)C(=O)N(C)C3)nc1` [Example 376, 2-Methyl-N-(5-methylpyridin-2-yl)-7-(4-(methylsulfonyl)-phenoxy)-3-oxoisoindoline-5-carboxamide], the EC50 (1 mM ATP, room temperature) was 6.4 µM. Besides, the activation at 10 µM under setting [2] amounted to 73.1%. For the same compound, under “1 mM ATP”, the Emax worked out at 90%.

For the compound `Cn1ccc(NC(=O)c2cc(OCc3ccccc3)c3c(c2)C(=O)N(C2CC2)C3)n1` [Example 377, 7-(Benzyloxy)-2-cyclopropyl-N-(1-methyl-1H-pyrazol-3-yl)-3-oxoisoindoline-5-carboxamide], the activation at 10 µM under setting [2] came to 25.6%.

As to `Cc1ccc(NC(=O)c2cc(OCc3ccccc3)c3c(c2)C(=O)N(C2CC2)C3)nc1` [Example 378, 7-(Benzyloxy)-2-cyclopropyl-N-(5-methylpyridin-2-yl)-3-oxoisoindoline-5-carboxamide], the activation at 10 µM under setting [2] was -1.85%.

For the compound `CCN1Cc2c(Oc3ccc(S(C)(=O)=O)cc3)cc(C(=O)Nc3ccc(C)cn3)cc2C1=O` [Example 379, 2-Ethyl-N-(5-methylpyridin-2-yl)-7-(4-(methylsulfonyl)-phenoxy)-3-oxoisoindoline-5-carboxamide], the EC50 (1 mM ATP, room temperature) is 4.5 µM. Besides, under setting [2], the activation at 10 µM was 74.1%. The Emax (1 mM ATP) is 98%.

For `CCN1Cc2c(Oc3ccc(S(C)(=O)=O)cc3)cc(C(=O)Nc3ccn(C)n3)cc2C1=O` [Example 380, 2-Ethyl-N-(1-methyl-1H-pyrazol-3-yl)-7-(4-(methylsulfonyl)-phenoxy)-3-oxoisoindoline-5-carboxamide], the EC50 (1 mM ATP, room temperature) is more than 10 µM. The activation at 10 µM under setting [2] was determined as 67.9%.

In the case of `Cc1ccc(NC(=O)c2cc(Oc3ccc(S(C)(=O)=O)cc3)c3c(c2)C(=O)N(CC(C)C)C3)nc1` [Example 381, 2-Isobutyl-N-(5-methylpyridin-2-yl)-7-(4-(methylsulfonyl)-phenoxy)-3-oxoisoindoline-5-carboxamide], the EC50 (1 mM ATP, room temperature) stood at 3 µM. Further, under setting [2], the activation at 10 µM came to 81%. Moreover, the Emax (1 mM ATP) was 132%.

With `CC(C)CN1Cc2c(Oc3ccc(S(C)(=O)=O)cc3)cc(C(=O)Nc3ccn(C)n3)cc2C1=O` [Example 382, 2-Isobutyl-N-(1-methyl-1H-pyrazol-3-yl)-7-(4-(methylsulfonyl)-phenoxy)-3-oxoisoindoline-5-carboxamide], the EC50 (1 mM ATP, room temperature) was 9.3 µM. Besides, under setting [2], the activation at 10 µM was found to be 82%. For the same compound, the Emax (1 mM ATP) worked out at 156%.

As to `Cc1ccc(NC(=O)c2cc(Oc3ccc(S(C)(=O)=O)cc3)c3c(c2)C(=O)N(C(C)C)C3)nc1` [Example 383, 2-Isopropyl-N-(5-methylpyridin-2-yl)-7-(4-(methylsulfonyl)-phenoxy)-3-oxoisoindoline-5-carboxamide], under setting [2], the activation at 10 µM is 32.6%.

As for `CC(C)N1Cc2c(Oc3ccc(S(C)(=O)=O)cc3)cc(C(=O)Nc3ccn(C)n3)cc2C1=O` [Example 384, 2-Isopropyl-N-(1-methyl-1H-pyrazol-3-yl)-7-(4-(methylsulfonyl)-phenoxy)-3-oxoisoindoline-5-carboxamide], the activation at 10 µM under setting [2] worked out at 33.2%.

`Cc1ccc(NC(=O)c2cc(Oc3ccc(S(C)(=O)=O)cc3)c3c(c2)C(=O)N(C2CC2)C3)nc1` [Example 385, 2-Cyclopropyl-N-(5-methylpyridin-2-yl)-7-(4-(methylsulfonyl)-phenoxy)-3-oxoisoindoline-5-carboxamide]: the EC50 (1 mM ATP, room temperature) came out at 4.5 µM. For the same compound, under setting [2], the activation at 10 µM is 93.2%. In addition, the Emax (1 mM ATP) was 107%.

As for `Cn1ccc(NC(=O)c2cc(Oc3ccc(S(C)(=O)=O)cc3)c3c(c2)C(=O)N(C2CC2)C3)n1` [Example 386, 2-Cyclopropyl-N-(1-methyl-1H-pyrazol-3-yl)-7-(4-(methylsulfonyl)-phenoxy)-3-oxoisoindoline-5-carboxamide], the EC50 (1 mM ATP, room temperature) is more than 10 µM. Under setting [2], the activation at 10 µM came to 78.8%.

Take `COCCN1Cc2c(Oc3ccc(S(C)(=O)=O)cc3)cc(C(=O)Nc3ccc(C)cn3)cc2C1=O` [Example 387, 2-(2-Methoxyethyl)-N-(5-methylpyridin-2-yl)-7-(4-(methylsulfonyl)-phenoxy)-3-oxoisoindoline-5-carboxamide]: the EC50 (1 mM ATP, room temperature) was more than 10 µM. Besides, the activation at 10 µM under setting [2] was 42.9%.

For `COCCN1Cc2c(Oc3ccc(S(C)(=O)=O)cc3)cc(C(=O)Nc3ccn(C)n3)cc2C1=O` [Example 388, 2-(2-Methoxyethyl)-N-(1-methyl-1H-pyrazol-3-yl)-7-(4-(methylsulfonyl)-phenoxy)-3-oxoisoindoline-5-carboxamide], under setting [2], the activation at 10 µM amounted to 39.7%.

Consider `CC(C)CN1CCc2c(Oc3ccc(S(C)(=O)=O)cc3)cc(C(=O)Nc3ccn(C)n3)cc2C1=O` [Example 389, 2-Isobutyl-N-(1-methyl-1H-pyrazol-3-yl)-5-[4-(methylsulfonyl)-phenoxy]-1-oxo-1,2,3,4-tetrahydroisoquinoline-7-carboxamide], for which, under setting [2], the activation at 10 µM stood at 32.9%.

Regarding `Cc1ccc(NC(=O)c2cc(Oc3ccc(S(C)(=O)=O)cc3)c3c(c2)C(=O)N(C)CC3)nc1` [Example 390, 2-Methyl-N-(5-methylpyridin-2-yl)-5-(4-(methylsulfonyl)-phenoxy)-1-oxo-1,2,3,4-tetrahydroisoquinoline-7-carboxamide], the activation at 10 µM under setting [2] amounted to 28.9%.

Take `Cc1ccc(NC(=O)c2cc(Oc3ccc(S(C)(=O)=O)cc3)c3c(c2)C(=O)N(CC(C)C)CC3)nc1` [Example 391, 2-Isobutyl-N-(5-methylpyridin-2-yl)-5-(4-(methylsulfonyl)-phenoxy)-1-oxo-1,2,3,4-tetrahydroisoquinoline-7-carboxamide]: the EC50 (1 mM ATP, room temperature) was more than 10 µM. Moreover, the activation at 10 µM under setting [2] is 45.2%.

With `CC(C)CN1CCc2c(Oc3ccc(C(=O)N(C)C)c(F)c3)cc(C(=O)Nc3ccn(C)n3)cc2C1=O` [Example 392, 5-(4-(Dimethylcarbamoyl)-3-fluorophenoxy)-2-isobutyl-N-(1-methyl-1H-pyrazol-3-yl)-1-oxo-1,2,3,4-tetrahydroisoquinoline-7-carboxamide], where the note is “1 mM ATP, room temperature”, the EC50 was more than 10 µM. Under setting [2], the activation at 10 µM is 48.6%.

As to `Cc1ccc(NC(=O)c2cc(Oc3ccc(S(C)(=O)=O)cc3)c3ccn(C)c(=O)c3c2)nc1` [Example 394, 2-Methyl-N-(5-methylpyridin-2-yl)-5-(4-(methylsulfonyl)-phenoxy)-1-oxo-1,2-dihydroisoquinoline-7-carboxamide], the activation at 10 µM under setting [2] was 32%.

For the compound `Cn1ccc(NC(=O)c2cc(Oc3cnc(C(=O)N4CCC4)cn3)c3c(c2)OC(C)(C)C3)n1` [Example 396, 4-[5-(Azetidine-1-carbonyl)-pyrazin-2-yloxy]-2,2-dimethyl-2,3-dihydro-benzofuran-6-carboxylic acid(1-methyl-1H-pyrazol-3-yl)-amide], for the setting “1 mM ATP, room temperature”, the EC50 was determined as 0.36 µM. The activation at 10 µM under setting [2] amounted to 204%. For the same compound, under “1 mM ATP”, the Emax is 212%.

As to `Cn1ccc(NC(=O)c2cc(Oc3ccc(C(=O)N4CC(F)C4)nc3)c3c(c2)OC(C)(C)C3)n1` [Example 397, 4-[6-(3-Fluoro-azetidine-1-carbonyl)-pyridin-3-yloxy]-2,2-dimethyl-2,3-dihydro-benzofuran-6-carboxylic acid(1-methyl-1H-pyrazol-3-yl)-amide], the EC50 (1 mM ATP, room temperature) was 0.083 µM. In addition, the activation at 10 µM under setting [2] came to 213%. For the same compound, for the setting “1 mM ATP”, the Emax came to 202%.

Broadly, the EC50 is the concentration that produces a half-maximal response.
